Measured values taken from US20240327393A1 (SIRONAX LTD., priority 2021, published 2024).

Test system: HT-1080 (ATCC, CCL-121) cells
Test: HT-1080 cell viability assay with ferroptosis inducer RSL3 (Cell Titer-Glo)
Format: cell-based
Conditions: Homo sapiens; HT-1080 cells treated with RSL3; 3-fold, 10-point dilution, 1.1 μM highest concentration; Table 2; read-out: EC50 (nM), ferroptosis inhibitory activity
Protocol: Example 2. Determination of EC50 Values in HT-1080 Cell Viability Assay
HT-1080 (ATCC, CCL-121) cells (6000 in 100 μl) were seeded in 96-well plates (Corning) and cultured in a 37° C. incubator with a humidified atmosphere of 5% CO2 for overnight. Cells were then treated with ferroptosis inducer RSL3 (TargetMol) and a 3-fold, 10-point serial dilution series of compounds with 1.1 μM as the highest concentration, […]. Cell viability was assessed using the Cell Titer-Glo Kit (Promega). The luminescence intensity was measured with a microplate reader (Envision, PerkinElmer), and cell viability was calculated by normalizing the data to untreated controls. The EC50 values of the compounds (e.g., Compounds 1-659) were calculated in GraphPad Prism (GraphPad Software, Inc., San Diego, CA, USA). The curves were fitted using a non-linear regression model with a sigmoidal dose response.

Row | EC50 [nM] | Structure (SMILES)
1 | 100 to 1000 | Cc1cc(Nc2ccc3c(c2)OCC(=O)N3)cnc1N1C[C@H](C)O[C@@H](C)C1 (stereo in doubt) [Compound 152, 7-((6-(2,6-dimethylmorpholino)-5-methylpyridin-3-yl)amino)-2H-benzo[b][1,4]oxazin-3(4H)-one]
2 | 0.1 to 100 | CN1C(=O)COc2cc(Nc3ccc(N4CCC(C(F)(F)F)CC4)cc3)ccc21 [Compound 2, 4-methyl-7-((4-(4-(trifluoromethyl)piperidin-1-yl)phenyl)amino)-2H-benzo[b][1,4]oxazin-3(4H)-one]
3 | 0.1 to 100 | CN1C(=O)CCOc2cc(Nc3ccc(N4CCC(C(F)(F)F)CC4)cc3)ccc21 [Compound 3, 5-methyl-8-((4-(4-(trifluoromethyl)piperidin-1-yl)phenyl)amino)-2,3-dihydrobenzo[b][1,4]oxazepin-4(5H)-one]
4 | 0.1 to 100 | CCCCCN(CCCCOC)c1ccc(Nc2ccc3c(c2)OCC(=O)N3C)cc1 [Compound 4, 7-((4-((4-methoxybutyl)(pentyl)amino)phenyl)amino)-4-methyl-2H-benzo[b][1,4]oxazin-3(4H)-one]
5 | 0.1 to 100 | CCCCCc1ccc(Nc2ccc3c(c2)OCC(=O)N3C)cc1 [Compound 6, 4-methyl-7-((4-pentylphenyl)amino)-2H-benzo[b][1,4]oxazin-3(4H)-one]
6 | 0.1 to 100 | CN1C(=O)COc2cc(Nc3ccc(OC4CCCCC4)cc3)ccc21 [Compound 7, 7-((4-(cyclohexyloxy)phenyl)amino)-4-methyl-2H-benzo[b][1,4]oxazin-3(4H)-one]
7 | 0.1 to 100 | CCCOc1cc(Nc2ccc3c(c2)OCC(=O)N3C)ccc1N1CCC(C(F)(F)F)CC1 [Compound 8, 4-methyl-7-((3-propoxy-4-(4-(trifluoromethyl)piperidin-1-yl)phenyl)amino)-2H-benzo[b][1,4]oxazin-3(4H)-one]
8 | 0.1 to 100 | COC1(C(F)(F)F)CCN(c2ccc(Nc3ccc4c(c3)OCC(=O)N4C)cc2)CC1 [Compound 9, 7-((4-(4-methoxy-4-(trifluoromethyl)piperidin-1-yl)phenyl)amino)-4-methyl-2H-benzo[b][1,4]oxazin-3(4H)-one]
9 | 0.1 to 100 | COCCCN1C(=O)COc2cc(Nc3ccc(N4CCC(C(F)(F)F)CC4)cc3)ccc21 [Compound 10, 4-(3-methoxypropyl)-7-((4-(4-(trifluoromethyl)piperidin-1-yl)phenyl)amino)-2H-benzo[b][1,4]oxazin-3(4H)-one]
10 | 0.1 to 100 | COCCN1C(=O)COc2cc(Nc3ccc(N4CCC(C(F)(F)F)CC4)cc3)ccc21 [Compound 11, 4-(2-methoxyethyl)-7-((4-(4-(trifluoromethyl)piperidin-1-yl)phenyl)amino)-2H-benzo[b][1,4]oxazin-3(4H)-one]
11 | 0.1 to 100 | CN1C(=O)COc2cc(Nc3ccc(OCCCF)cc3)ccc21 [Compound 13, 7-((4-(3-fluoropropoxy)phenyl)amino)-4-methyl-2H-benzo[b][1,4]oxazin-3(4H)-one]
12 | 0.1 to 100 | NC(=O)CN1C(=O)COc2cc(Nc3ccc(N4CCC(C(F)(F)F)CC4)cc3)ccc21 [Compound 14, 2-(3-oxo-7-((4-(4-(trifluoromethyl)piperidin-1-yl)phenyl)amino)-2,3-dihydro-4H-benzo[b][1,4]oxazin-4-yl)acetamide]
13 | 0.1 to 100 | NC(=O)CCN1C(=O)COc2cc(Nc3ccc(N4CCC(C(F)(F)F)CC4)cc3)ccc21 [Compound 15, 3-(3-oxo-7-((4-(4-(trifluoromethyl)piperidin-1-yl)phenyl)amino)-2,3-dihydro-4H-benzo[b][1,4]oxazin-4-yl)propanamide]
14 | 0.1 to 100 | CCN1C(=O)COc2cc(Nc3ccc(N4CCC(C(F)(F)F)CC4)cc3)ccc21 [Compound 16, 4-ethyl-7-((4-(4-(trifluoromethyl)piperidin-1-yl)phenyl)amino)-2H-benzo[b][1,4]oxazin-3(4H)-one]
15 | 0.1 to 100 | CN1C(=O)COc2cc(Nc3ccc(N4CCC(C(F)(F)F)CC4)nc3)ccc21 [Compound 17, 4-methyl-7-((6-(4-(trifluoromethyl)piperidin-1-yl)pyridin-3-yl)amino)-2H-benzo[b][1,4]oxazin-3(4H)-one]
16 | 0.1 to 100 | CC(C)(C)C(=O)N1CCOc2cc(Nc3ccc(N4CCC(C(F)(F)F)CC4)cc3)ccc21 [Compound 18, 2,2-dimethyl-1-(7-((4-(4-(trifluoromethyl)piperidin-1-yl)phenyl)amino)-2,3-dihydro-4H-benzo[b][1,4]oxazin-4-yl)propan-1-one]
17 | 0.1 to 100 | CNc1cc(Nc2ccc3c(c2)OCC(=O)N3C)ccc1N1CC(C)OC(C)C1 (stereo not shown) [Compound 19, 7-((4-(2,6-dimethylmorpholino)-3-(methylamino)phenyl)amino)-4-methyl-2H-benzo[b][1,4]oxazin-3(4H)-one]

Row | EC50 [nM] | Structure (SMILES)
18 | 0.1 to 100 | CC1CN(c2ccc(Nc3ccc4c(c3)OCC(=O)N4C)cc2N(C)C)CC(C)O1 (stereo not shown) [Compound 20, 7-((3-(dimethylamino)-4-(2,6-dimethylmorpholino)phenyl)amino)-4-methyl-2H-benzo[b][1,4]oxazin-3(4H)-one]
19 | 0.1 to 100 | CN1C(=O)COc2cc(Nc3ccc(N4CC5(CCC5)C4)cc3)ccc21 [Compound 21, 7-((4-(2-azaspiro[3.3]heptan-2-yl)phenyl)amino)-4-methyl-2H-benzo[b][1,4]oxazin-3(4H)-one]
20 | 0.1 to 100 | CCN(CC)c1ccc(Nc2ccc3c(c2)OCC(=O)N3C)cc1 [Compound 22, 7-((4-(diethylamino)phenyl)amino)-4-methyl-2H-benzo[b][1,4]oxazin-3(4H)-one]
21 | 0.1 to 100 | CN1C(=O)COc2cc(Nc3ccc(N4CCC(CF)CC4)cc3)ccc21 [Compound 23, 7-((4-(4-(fluoromethyl)piperidin-1-yl)phenyl)amino)-4-methyl-2H-benz o[b][1,4]oxazin-3(4H)-one]
22 | 0.1 to 100 | CCN1C(=O)COc2cc(Nc3ccc(N4CCC(C(F)(F)F)CC4)nc3)ccc21 [Compound 24, 4-ethyl-7-((6-(4-(trifluoromethyl)piperidin-1-yl)pyridin-3-yl)amino)-2H-benzo[b][1,4]oxazin-3(4H)-one]
23 | 0.1 to 100 | CC(C)(C)NC(=O)N1CCOc2cc(Nc3ccc(N4CCC(C(F)(F)F)CC4)cc3)ccc21 [Compound 25]
24 | 0.1 to 100 | Cc1nc(N2CCC(C(F)(F)F)CC2)ccc1Nc1ccc2c(c1)OCC(=O)N2C [Compound 26, 4-methyl-7-((2-methyl-6-(4-(trifluoromethyl)piperidin-1-yl)pyridin-3-yl)amino)-2H-benzo[b][1,4]oxazin-3(4H)-one]
25 | 0.1 to 100 | CN1C(=O)COc2cc(Nc3cnc(N4CCC(C(F)(F)F)CC4)c(F)c3)ccc21 [Compound 27, 7-((5-fluoro-6-(4-(trifluoromethyl)piperidin-1-yl)pyridin-3-yl)amino)-4-methyl-2H-benzo[b][1,4]oxazin-3(4H)-one]
26 | 0.1 to 100 | CN1C(=O)COc2ccc(Nc3ccc(N4CCC(C(F)(F)F)CC4)cc3)cc21 [Compound 28, 4-methyl-6-((4-(4-(trifluoromethyl)piperidin-1-yl)phenyl)amino)-2H-benzo[b][1,4]oxazin-3(4H)-one]
27 | 0.1 to 100 | CN1C(=O)COc2cc(Nc3ccc(N4CCCCC4)cc3)ccc21 [Compound 29]
28 | 0.1 to 100 | CCCCCN(CC)c1ccc(Nc2ccc3c(c2)OCC(=O)N3C)cc1 [Compound 30, 7-((4-(ethyl(pentyl)amino)phenyl)amino)-4-methyl-2H-benzo[b][1,4]oxazin-3(4H)-one]
29 | 0.1 to 100 | CCN(CCCOC)c1ccc(Nc2ccc3c(c2)OCC(=O)N3C)cc1 [Compound 31, 7-((4-(ethyl(3-methoxypropyl)amino)phenyl)amino)-4-methyl-2H-benzo[b][1,4]oxazin-3(4H)-one]
30 | 0.1 to 100 | CCCCCOc1ccc(Nc2ccc3c(c2)OCC(=O)N3C)cc1OC [Compound 32, 7-((3-methoxy-4-(pentyloxy)phenyl)amino)-4-methyl-2H-benzo[b][1,4]oxazin-3(4H)-one]
31 | 0.1 to 100 | CN1C(=O)COc2cc(Nc3ccc(F)c(N4CCC(C(F)(F)F)CC4)c3)ccc21 [Compound 33, 7-((4-fluoro-3-(4-(trifluoromethyl)piperidin-1-yl)phenyl)amino)-4-methyl-2H-benzo[b][1,4]oxazin-3(4H)-one]
32 | 100 to 1000 | CN1C(=O)COc2cc(Nc3ccc(N4CCC(C(F)(F)F)CC4)cc3F)ccc21 [Compound 34, 7-((2-fluoro-4-(4-(trifluoromethyl)piperidin-1-yl)phenyl)amino)-4-methyl-2H-benzo[b][1,4]oxazin-3(4H)-one]
33 | 0.1 to 100 | CN1C(=O)COc2cc(Nc3ccc(C4CCC(C)(C)CC4)cc3)ccc21 [Compound 35, 7-((4-(4,4-dimethylcyclohexyl)phenyl)amino)-4-methyl-2H-benzo[b][1,4]oxazin-3(4H)-one]
34 | 0.1 to 100 | CC(C)C1CCN(c2ncc(Nc3ccc4c(c3)OCC(=O)N4C)cn2)CC1 [Compound 36, 7-((2-(4-isopropylpiperidin-1-yl)pyrimidin-5-yl)amino)-4-methyl-2H-benzo[b][1,4]oxazin-3(4H)-one]

Row | Structure (SMILES) | EC50 [nM]
35 | CC1CCN(c2ccc(Nc3ccc4c(c3)OCC(=O)N4C)cc2)CC1 [Compound 1, 4-methyl-7-((4-(4-methylpiperidin-1-yl)phenyl)amino)-2H-benzo[b][1,4]oxazin-3(4H)-one] | 0.1 to 100
36 | CCCCOc1ccc(Nc2ccc3c(c2)OCC(=O)N3C)cc1 [Compound 5, 7-((4-butoxyphenyl)amino)-4-methyl-2H-benzo[b][1,4]oxazin-3(4H)-one] | 0.1 to 100
37 | CCCCOc1ccc(Nc2ccc3c(c2)OCC(=O)N3C)cn1 [Compound 12, 7-((6-butoxypyridin-3-yl)amino)-4-methyl-2H-benzo[b][1,4]oxazin-3(4H)-one] | 0.1 to 100
